Measurements from patent publication US20260183405A1, “SMALL MOLECULE-DRUG-CONJUGATES CLEAVABLE IN A TUMOR MICROENVIRONMENT” (priority 2022, published 2026).
Like-named read-outs stand apart in the source and are kept apart here.

Assays:
[1] = in vitro; conditions: human, Caco-2
Description: (§1) Caco-2: The cell permeability of a substance can be investigated by means of in vitro testing in a flux assay using Caco-2 cells [M. D. Troutman and D. R. Thakker, Pharm. Res. 20 (8), 1210-1224 (2003)]. For this purpose, the cells were cultured for 15-16 days on 24-well filter plates. For the determination of permeation, the respective test substance was applied in a HEPES buffer to the cells either apically (A) or basally (B) and incubated for 2 hours. After 0 hours and after 2 hours, samples were taken from the cis and trans compartments. The samples were separated by HPLC (Agilent 1200, Böblingen, Germany) using reverse phase columns. The HPLC system was coupled via a Turbo Ion Spray Interface to a Triple Quadropol mass spectrometer API 4000 (AB SCIEX Deutschland GmbH, Darmstadt, Germany). The permeability was evaluated on the basis of a Papp value, which was calculated using the formula published by Schwab et al. [D. Schwab et al., J. Med. Chem. 46, 1716-1725 (2003)]. A substance was classified as actively transported when the ratio of Papp (B-A) to Papp (A-B) (efflux ratio) was >2 or <0.5. […] In Table 2, reference compounds are provided for comparison.

[2] = Stability in rat plasma; assay type: in vitro ADME; conditions: 37° C., percent area of the initial compound at t0 (HPLC), read-out: Stability rat plasma after 4 h
Description: (§2) 1 mg of the respective test compound of is dissolved in a mixture of 1.5 mL dimethylsulfoxide and 1 ml water. For complete dissolution, the HPLC vial is shaken and treated with an ultrasound. 500 μl of this solution is added to 0.5 mL of plasma with vortexing at a temperature of 37° C. Aliquots (10 μL each) are taken at respective time points and analyzed by HPLC to determine the amount of the test compound. All data is given as percent area of the initial compound at to.

[3] = Stability in human plasma; assay type: in vitro ADME; conditions: 37° C., percent area of the initial compound at t0 (HPLC), read-out: Stability human plasma after 4 h
Description: as §2

[4] = Stability in buffer; assay type: physicochemical; conditions: HPLC peak area in percentage
Description: 0.15 mg of the test compound are solved in 0.1 ml dimethylsulfoxide and 0.4 ml acetonitrile. For complete dissolution the HPLC vial with the sample solution is shaken and sonicated. Then 1.0 ml of the respective buffer solution is added, and the sample is vortexed. The sample solution is analysed by HPLC to determine the amount of the test compound and up to two byproducts at a particular time over a period of 24 h at 37° C. to values result from a sample immediately taken after vortexing with buffer at RT. The peak areas (in percentage) are used for quantification.

[5] = Pharmacokinetics in rat after intravenous administration; assay type: in vivo; conditions: plasma, male rats, intravenous bolus 0.5 mg/kg; for clearance: read-out: CL plasma; for Vd: read-out: VSS
Description: Male rats (n=3) were given an intravenous 0.5 mg/kg bolus dose of test article dissolved in plasma with 1% DMSO and 2% ethanol. Serial blood samples were collected up to 24 hours post-dose. Plasma was harvested from blood samples and stored frozen until sample analysis. Test article plasma concentrations were analyzed by LC/MS/MS. Pharmacokinetic parameters were calculated using non-compartmental analysis.

[6] = biological target: T1, human Elastase (Homo sapiens, UniProt P08246); test: Elastase cleavability test; assay type: biochemical; conditions: 5 μM test compound, 1 h at 37° C.
T1 sequence (P08246 30-267): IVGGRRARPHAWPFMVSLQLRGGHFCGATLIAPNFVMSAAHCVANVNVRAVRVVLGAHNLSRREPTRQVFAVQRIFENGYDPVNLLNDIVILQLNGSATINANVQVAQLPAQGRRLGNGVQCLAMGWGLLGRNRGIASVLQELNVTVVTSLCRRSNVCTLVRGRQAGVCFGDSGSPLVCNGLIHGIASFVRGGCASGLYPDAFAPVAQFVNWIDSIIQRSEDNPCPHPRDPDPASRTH
Description: The test compound was added to buffer (150 mM NaCl, 10 mM CaCl2, 0.05% BSA) to a final concentration of 5 μM (0.5% DMSO). The reaction was started by adding different concentrations of human Elastase (0, 20, 40, 60 nM) to the reaction vials. After incubation for 1 h at 37° C., the enzymatic reaction was stopped by precipitation in 50% ACN. Subsequently, the samples were subjected to HPLC-MS analysis to determine the concentration of test compound and of its metabolite.

[7] = tested on: 786-O; test: Cytotoxicity in vitro in the presence and absence of elastase (MTT assay); assay type: cell-based; conditions: 786-O cells, 72 h incubation
Description: (§3) Cultivation of cells was performed according to standard procedures with the media recommended by the provider. The cells, in a total volume of 100 μL, were seeded in a 96-well plate with a white bottom (#3610). After a 24 h incubation period at 37° C. and 5% CO2, the medium was exchanged by adding 90 μL fresh medium. The treatment started by adding the test compound in 10 μL of culture medium to the cells in triplicates. Concentrations ranging from 10^−5 M to 10^−13 M were chosen. Two identically treated sets of samples were prepared. One set was treated with the test compound alone, whereas to the second set the compound and 10 nM elastase (NE) was added followed by a 72 h incubation period at 37° C. and 5% CO2. The proliferation was detected using the MTT assay (ATCC). At the end of the incubation period the MTT reagent was added to all samples for 4h. Lysis of the cells followed by addition of the detergent was done overnight. The formed dye was detected at 570 nm. The proliferation of untreated but otherwise identically handled cells was defined as the 100% value. The dose response curves allowed the determination of the respective IC50 values. […]

[8] = tested on: HT29; test: as above; assay type: cell-based; conditions: HT29 cells, 72 h incubation
Description: as §3

[9] = tested on: NCI-H292; test: as above; assay type: cell-based; conditions: NCI-H292 cells, 72 h incubation
Description: as §3

[10] = tested on: SUM149PT; test: as above; assay type: cell-based; conditions: SUM149PT cells, 72 h incubation
Description: as §3

[11] = tested on: Caco-2 cells; test: Caco-2 flux assay for cellular permeability; conditions: for Caco-2 Flux Papp A-B [nm/s]: Caco-2 cells, apical to basal, 2 hours incubation; for Caco-2 Flux Efflux ratio: ratio Papp (B-A) to Papp (A-B), actively transported when >2 or <0.5, 0.5-2 not actively transported
Description: as §1

[12] = buffer pH 4, 37° C., read-out: Stability buffer pH 4 after 24 h
[13] = buffer pH 7.4, 37° C., read-out: Stability buffer pH 7.4 after 24 h
[14] = compound alone, read-out: IC50 without neutrophil elastase
[15] = with 10 nM elastase (NE), read-out: IC50 with neutrophil elastase

In the case of COC(=O)[C@@H](N)CCN(C(=O)CO)[C@@H](c1cc(-c2cc(F)ccc2F)cn1Cc1ccccc1)C(C)(C)C, the Papp A→B at 2 h [1] is reported as 1 to 9.9 ×10⁻⁶ cm/s and the efflux ratio at 2 h [1] is reported as over 2.
Work on CC(C)(C)[C@H](c1cc(-c2cc(F)ccc2F)cn1Cc1ccccc1)N(CCCN)C(=O)CO yielded a Papp A→B at 2 h [1] of 0.1 to 0.9 ×10⁻⁶ cm/s and an efflux ratio at 2 h [1] of over 2.
In the case of CC(C)(C)[C@H](c1cc(-c2cc(F)ccc2F)cn1Cc1ccccc1)N(CCC(N)C(F)F)C(=O)CO (stereo partly drawn), the Papp A→B at 2 h [1] is reported as 10 to 99.9 ×10⁻⁶ cm/s and the efflux ratio at 2 h [1] is reported as 0.5 to 2.
In the case of CCc1c2c(nc3ccccc13)-c1cc3c(c(=O)n1C2)COC(=O)[C@]3(O)CC, the Papp A→B at 2 h [1] is reported as 10 to 99.9 ×10⁻⁶ cm/s and the efflux ratio at 2 h [1] is reported as 0.5 to 2.
CCCNC(=O)Nc1cccc(S(=O)(=O)Nc2cccc([C@@H](CC(=O)O)NC(=O)Nc3ccc(NC(=O)NCCOCCOCCOCCC(=O)N[C@@H](CC(=O)O)C(=O)N4CCC[C@H]4C(=O)N[C@H](C(=O)O[C@@H](c4ccccc4)[C@@H](C)NC(=O)[C@H](C)C(OC)[C@@H]4CCCN4C(=O)CC(OC)[C@H]([C@@H](C)CC)N(C)C(=O)[C@@H](NC(=O)[C@@H](NC)C(C)C)C(C)C)C(C)C)cc3)c2)c1 (stereo partly drawn) [Compound 13] gave a remaining at 4 h, 0.2 mg/mL [2] of 100%, a remaining at 4 h, 0.2 mg/mL [3] of 100% and a remaining at 24 h, 0.1 mg/mL [4, 12] of 92%. For the same compound, the remaining at 24 h, 0.1 mg/mL [4, 13] was 100%, the AUC [5] was 1000 to 10000 ng·h/mL and the half-life [5] was 60 to 300 min. The clearance [5] was 0.5 to 5 mL/min/kg, the Vd [5] was 0.1 to 0.3 L/kg and the “Payload release after 1 h” value ([6]; Elastase Concentration 0 nM) was “D (D = <1%)”. For the same compound, the “Payload release after 1 h” value ([6]; Elastase Concentration 20 nM) was “A (A = >70%)”.
Work on CCCNC(=O)Nc1cccc(S(=O)(=O)Nc2cccc([C@@H](CC(=O)O)NC(=O)Nc3ccc(NC(=O)NCCOCCOCCOCCC(=O)NCCCC[C@H](NC(=O)CCOCCOCCOCCNC(=O)Nc4ccc(NC(=O)N[C@H](CC(=O)O)c5cccc(NS(=O)(=O)c6cccc(NC(=O)NCCC)c6)c5)cc4)C(=O)NCCOCCOCCOCCC(=O)N[C@@H](CC(=O)O)C(=O)N4CCC[C@H]4C(=O)N[C@H](C(=O)O[C@@H](c4ccccc4)[C@@H](C)NC(=O)[C@H](C)[C@@H](OC)[C@@H]4CCCN4C(=O)C[C@@H](OC)[C@H]([C@@H](C)CC)N(C)C(=O)[C@@H](NC(=O)[C@@H](NC)C(C)C)C(C)C)C(C)C)cc3)c2)c1 [Compound 14] yielded an IC50 [7, 14] of 100 to 999 nM, an IC50 [7, 15] of 1 to 9.9 nM and an IC50 [8, 14] of 100 to 999 nM. It also gave an IC50 [8, 15] of 0.1 to 1 nM, an IC50 [9, 14] of 10 to 99 nM and an IC50 [9, 15] of 0.1 to 1 nM. For the same compound, the IC50 [10, 14] was 10 to 99 nM, the IC50 [10, 15] was 0.1 to 1 nM and the AUC [5] was 100000 to 500000 ng·h/mL. The half-life [5] was 600 to 2400 min, the clearance [5] was 0.02 to 0.5 mL/min/kg and the Vd [5] was 0.1 to 0.3 L/kg.
With CCCNC(=O)Nc1cccc(S(=O)(=O)Nc2cccc([C@@H](CC(=O)O)NC(=O)Nc3ccc(NC(=O)NCCOCCOCCOCCC(=O)N[C@@H](CC(=O)O)C(=O)N4CCC[C@H]4C(=O)N[C@H](C(=O)N[C@@H](CCN(C(=O)CO)[C@@H](c4cc(-c5cc(F)ccc5F)cn4Cc4ccccc4)C(C)(C)C)C(=O)NC)C(C)C)cc3)c2)c1 [Compound 26, disodium 1-[(2S)-2-(carboxylatomethyl)-17-{4-[({(1R)-2-carboxylato-1-[3-({3-[(propylcarbamoyl)amino]benzene-1-sulfonyl}amino)phenyl]ethyl}carbamoyl)amino]anilino}-4,17-dioxo-7,10,13-trioxa-3,16-diazaheptadecanan-1-oyl]-L-prolyl-N-[(2S)-4-[{(1R)-1-[1-benzyl-4-(2,5-difluorophenyl)-1H-pyrrol-2-yl]-2,2-dimethylpropyl}(hydroxyacetyl)amino]-1-(methylamino)-1-oxobutan-2-yl]-L-valinamide] the IC50 [8, 14] was over 1000 nM, the IC50 [8, 15] was 1 to 9.9 nM and the IC50 [9, 14] was over 1000 nM. For the same compound, the IC50 [9, 15] was 1 to 9.9 nM, the IC50 [10, 14] was over 1000 nM and the IC50 [10, 15] was 0.1 to 1 nM. For the same compound, the remaining at 4 h, 0.2 mg/mL [2] was 100%, the remaining at 4 h, 0.2 mg/mL [3] was 100% and the remaining at 24 h, 0.1 mg/mL [4, 12] was 94%. The remaining at 24 h, 0.1 mg/mL [4, 13] was 100%, the AUC [5] was 1000 to 10000 ng·h/mL and the half-life [5] was under 30 min. The clearance [5] was 0.5 to 5 mL/min/kg, the Vd [5] was 0.01 to 0.1 L/kg and the “Payload release after 1 h” value ([6]; Elastase Concentration 0 nM) was “D (D = <1%)”. For the same compound, the “Payload release after 1 h” value ([6]; Elastase Concentration 20 nM) was “B (B = >20%)”.
For CC[C@@]1(O)C(=O)OCc2c1cc1n(c2=O)Cc2c-1nc1cc(F)c(C)c3c1c2[C@@H](NC(=O)CO)CC3 [Ref 2, DXd, reference compound], the “Caco-2 Flux Papp A-B [nm/s]” value [11] was “AA (AA = 1-9 nm/s)” and the “Caco-2 Flux Efflux ratio” value [11] was “A (A = actively transported)”.
In the case of CC[C@@]1(O)C(=O)OCc2c1cc1n(c2=O)Cc2cc3cc4c(cc3nc2-1)OCO4 [Ref 3, 10,11-methylenedioxy-camptothecin, reference compound], the “Caco-2 Flux Papp A-B [nm/s]” value [11] is reported as “CC (CC = 100-999 nm/s)” and the “Caco-2 Flux Efflux ratio” value [11] is reported as “B (B = not actively transported)”.
“N2-(14-{4-[({(1R)-2-carboxy-1-[3-({3-[(propylcarbamoyl)amino]benzene-1-sulfonyl}amino)phenyl]ethyl}carbamoyl)amino]anilino}-14-oxo-4,7,10-trioxa-13-azatetradecanan-1-oyl}-L-asparaginyl-L-prolyl-N-{3-[{(1R)-1-[1-benzyl-4-(2,5-difluorophenyl)-1H-pyrrol-2-yl]-2,2-dimethylpropyl}(hydroxyacetyl)amino]propyl}-L-alaninamide [Compound 15]” showed an IC50 [7, 14] of over 1000 nM, an IC50 [7, 15] of 10 to 99 nM and an IC50 [8, 14] of 100 to 999 nM. The IC50 [8, 15] was 1 to 9.9 nM, the IC50 [9, 14] was 100 to 999 nM and the IC50 [9, 15] was 10 to 99 nM. For the same compound, the IC50 [10, 14] was 10 to 99 nM and the IC50 [10, 15] was 1 to 9.9 nM.
With “exatecan mesylate [Ref 1, reference compound]” the “Caco-2 Flux Papp A-B [nm/s]” value [11] was “CC (CC = 100-999 nm/s)” and the “Caco-2 Flux Efflux ratio” value [11] was “B (B = not actively transported)”.
